Assay results as given in patent publication US20250145585A1, “HETEROCYCLIC INHIBITORS OF IGF-1R FOR TREATMENT OF DISEASE” (HORIZON THERAPEUTICS IRELAND DAC, priority 2023, published 2025).
pIC50: −log10 of the molar value.

Target: T1, IGF-1R (Homo sapiens, UniProt P08069)
T1 construct: expressed in transfected cells
Assay: Example B-2: IGF-1R Assay (PathHunter cell lines, EC80 agonist challenge, chemiluminescent detection)
Type: cell-based
Details: PathHunter cells, compound 60 minutes at 37° C., EC80 agonist 3 hours; read-out: IC50, Biological Activity against IGF-1R (Table B2)
In short: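 PathHunter cells were pre-incubated with compound for 60 min at 37° C (1% vehicle), then challenged with EC80 agonist for 3 h at room temperature. Chemiluminescent detection after 1 h gave % inhibition relative to EC80 and vehicle controls, from which IC50 was derived.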

T1 sequence (P08069 31-1367): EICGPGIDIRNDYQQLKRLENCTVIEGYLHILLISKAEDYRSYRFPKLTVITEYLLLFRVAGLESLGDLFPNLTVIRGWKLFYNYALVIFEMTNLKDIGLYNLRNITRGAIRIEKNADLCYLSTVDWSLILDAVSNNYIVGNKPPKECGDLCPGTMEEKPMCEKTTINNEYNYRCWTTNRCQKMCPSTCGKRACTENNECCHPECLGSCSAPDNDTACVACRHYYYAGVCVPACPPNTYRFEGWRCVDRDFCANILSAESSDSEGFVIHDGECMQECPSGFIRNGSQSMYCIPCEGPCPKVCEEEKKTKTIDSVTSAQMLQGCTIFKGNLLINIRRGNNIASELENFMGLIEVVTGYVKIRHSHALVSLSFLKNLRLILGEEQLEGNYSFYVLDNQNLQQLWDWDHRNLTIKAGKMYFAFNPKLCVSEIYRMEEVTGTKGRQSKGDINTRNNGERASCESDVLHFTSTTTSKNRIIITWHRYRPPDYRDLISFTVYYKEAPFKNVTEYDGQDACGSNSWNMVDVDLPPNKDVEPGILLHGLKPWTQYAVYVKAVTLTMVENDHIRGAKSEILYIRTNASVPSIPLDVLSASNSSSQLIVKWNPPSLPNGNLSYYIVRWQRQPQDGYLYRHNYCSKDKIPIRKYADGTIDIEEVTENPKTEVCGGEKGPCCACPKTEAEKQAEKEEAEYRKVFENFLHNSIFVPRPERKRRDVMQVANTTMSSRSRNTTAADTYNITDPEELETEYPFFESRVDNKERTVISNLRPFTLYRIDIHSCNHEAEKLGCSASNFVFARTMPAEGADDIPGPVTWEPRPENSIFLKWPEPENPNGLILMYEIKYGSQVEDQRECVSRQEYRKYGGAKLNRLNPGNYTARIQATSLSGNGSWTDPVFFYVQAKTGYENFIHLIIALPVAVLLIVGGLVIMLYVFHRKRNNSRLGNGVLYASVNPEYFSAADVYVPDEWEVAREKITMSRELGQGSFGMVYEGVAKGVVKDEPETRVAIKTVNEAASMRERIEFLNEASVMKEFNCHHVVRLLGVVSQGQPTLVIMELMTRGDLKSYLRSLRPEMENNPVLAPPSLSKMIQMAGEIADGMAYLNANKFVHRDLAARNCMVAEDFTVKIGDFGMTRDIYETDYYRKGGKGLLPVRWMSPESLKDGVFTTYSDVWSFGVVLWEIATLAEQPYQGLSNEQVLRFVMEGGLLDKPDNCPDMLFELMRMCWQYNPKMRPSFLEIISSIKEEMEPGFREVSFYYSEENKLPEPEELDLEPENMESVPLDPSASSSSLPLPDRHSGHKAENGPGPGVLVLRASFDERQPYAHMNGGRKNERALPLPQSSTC

Row | Structure (SMILES) | pIC50
1 | CC1(C)C(=O)N(c2ccc(C3(C(F)(F)F)CC3)cc2)C(=O)N1Cc1ccnc(NCC2(C#N)CC2)c1 [Compound 160, 1-(((4-((5,5-dimethyl-2,4-dioxo-3-(4-(1-(trifluoromethyl)cyclopropyl)phenyl)imidazolidin-1-yl)methyl)pyridin-2-yl)amino)methyl)cyclopropane-1-carbonitrile] | ≥ 6.30
2 | CC1(C)C(=O)N(c2ccc(C3(C(F)(F)F)CC3)cc2)C(=O)N1Cc1ccnc(NC2CCc3cn[nH]c3C2)c1 (centres unmarked) [Compound 161, 5,5-dimethyl-1-((2-((4,5,6,7-tetrahydro-1H-indazol-6-yl)amino)pyridin-4-yl)methyl)-3-(4-(1-(trifluoromethyl)cyclopropyl)phenyl) imidazolidine-2,4-dione] | ≥ 6.30
3 | CC(C)(C#N)c1ccc(N2C(=O)N(Cc3ccnc(N[C@H]4[C@@H]5COC[C@@H]54)c3)C(C)(C)C2=O)cc1 [Compound 162, 2-(4-(3-((2-(((1R,5S,6r)-3-oxabicyclo[3.1.0]hexan-6-yl)amino)pyridin-4-yl)methyl)-4,4-dimethyl-2,5-dioxoimidazolidin-1-yl)phenyl)-2-methylpropanenitrile] | ≥ 6.30
4 | COC(C)CNc1cc(CN2C(=O)N(c3ccc(C4(C(F)(F)F)CC4)cc3)C(=O)C2(C)C)ccn1 (centres unmarked) [Compound 163, 1-((2-((2-methoxypropyl)amino)pyridin-4-yl)methyl)-5,5-dimethyl-3-(4-(1-(trifluoromethyl)cyclopropyl)phenyl) imidazolidine-2,4-dione] | ≥ 6.30
5 | CC1(C)C(=O)N(c2ccc3c(c2)N(S(C)(=O)=O)CC32CC2(C)C)C(=O)N1Cc1ccnc(N[C@H]2[C@@H]3COC[C@@H]32)c1 (stereo partly drawn) [Compound 164, 1-((2-(((1R,5S,6r)-3-oxabicyclo[3.1.0]hexan-6-yl)amino)pyridin-4-yl)methyl)-3-(2,2-dimethyl-1′-(methylsulfonyl)spiro[cyclopropane-1,3′-indolin]-6′-yl)-5,5-dimethylimidazolidine-2,4-dione] | ≥ 6.30
6 | CC(Nc1cc(CN2C(=O)N(c3ccc(C4(C(F)(F)F)CC4)cc3)C(=O)C2(C)C)ccn1)c1cccnc1 (centres unmarked) [Compound 165, 5,5-dimethyl-1-((2-((1-(pyridin-3-yl)ethyl)amino)pyridin-4-yl)methyl)-3-(4-(1-(trifluoromethyl)cyclopropyl)phenyl)imidazolidine-2,4-dione] | ≥ 6.30
7 | CC1(C)C(=O)N(c2ccc(C3(C(F)(F)F)CC3)cc2)C(=O)N1Cc1ccnc(NS(C)(=O)=O)c1 [Compound 166, N-(4-((5,5-dimethyl-2,4-dioxo-3-(4-(1-(trifluoromethyl)cyclopropyl)phenyl)imidazolidin-1-yl)methyl)pyridin-2-yl)methanesulfonamide] | 5.70 to 6.30
8 | CC(Nc1cc(CN2C(=O)N(c3ccc(C4(C(F)(F)F)CC4)cc3)C(=O)C2(C)C)ccn1)c1cnn(C)c1 (centres unmarked) [Compound 167, 5,5-dimethyl-1-((2-((1-(1-methyl-1H-pyrazol-4-yl)ethyl)amino)pyridin-4-yl)methyl)-3-(4-(1-(trifluoromethyl)cyclopropyl)phenyl) imidazolidine-2,4-dione] | ≥ 6.30
9 | CC(Nc1cc(CN2C(=O)N(c3ccc(C4(C(F)(F)F)CC4)cc3)C(=O)C2(C)C)ccn1)c1cnccn1 (centres unmarked) [Compound 168, 5,5-dimethyl-1-((2-((1-(pyrazin-2-yl)ethyl)amino)pyridin-4-yl)methyl)-3-(4-(1-(trifluoromethyl)cyclopropyl)phenyl) imidazolidine-2,4-dione] | ≥ 6.30
10 | Cn1cc(CNc2cc(CN3C(=O)N(c4ccc(C5(C(F)(F)F)CC5)cc4)C(=O)C3(C)C)ccn2)cn1 [Compound 169, 5,5-dimethyl-1-((2-(((1-methyl-1H-pyrazol-4-yl)methyl)amino)pyridin-4-yl)methyl)-3-(4-(1-(trifluoromethyl)cyclopropyl)phenyl) imidazolidine-2,4-dione] | ≥ 6.30
11 | CC1(C)C(=O)N(c2ccc(C3(C#N)CC3(C)C)cc2)C(=O)N1Cc1ccnc(N[C@H]2[C@@H]3COC[C@@H]32)c1 (stereo partly drawn) [Compound 170, 1-(4-(3-((2-(((1R,5S,6r)-3-oxabicyclo[3.1.0]hexan-6-yl)amino)pyridin-4-yl)methyl)-4,4-dimethyl-2,5-dioxoimidazolidin-1-yl)phenyl)-2,2-dimethylcyclopropane-1-carbonitrile] | ≥ 6.30
12 | CC1(C)C(=O)N(c2ccc(C3(C(F)(F)F)CC3)cc2)C(=O)N1Cc1ccnc(NCc2cn[nH]c2)c1 [Compound 171, 1-((2-(((1H-pyrazol-4-yl)methyl)amino)pyridin-4-yl)methyl)-5,5-dimethyl-3-(4-(1-(trifluoromethyl)cyclopropyl)phenyl) imidazolidine-2,4-dione] | ≥ 6.30
13 | CNS(=O)(=O)c1ccc(CNc2cc(CN3C(=O)N(c4ccc(C5(C(F)(F)F)CC5)cc4)C(=O)C3(C)C)ccn2)cc1 [Compound 172, 4-(((4-((5,5-dimethyl-2,4-dioxo-3-(4-(1-(trifluoromethyl)cyclopropyl)phenyl)imidazolidin-1-yl)methyl)pyridin-2-yl)amino)methyl)-N-methylbenzenesulfonamide] | ≥ 6.30
14 | CC1(C)C(=O)N(c2ccc(C3(C(F)(F)F)CC3)cc2)C(=O)N1Cc1ccnc(NCc2ncc[nH]2)c1 [Compound 173, 1-((2-(((1H-imidazol-2-yl)methyl)amino)pyridin-4-yl)methyl)-5,5-dimethyl-3-(4-(1-(trifluoromethyl)cyclopropyl)phenyl) imidazolidine-2,4-dione] | ≥ 6.30
15 | CC1(C)C(=O)N(c2ccc(C3(C(F)(F)F)CC3)cc2)C(=O)N1Cc1ccnc(NCc2nnc[nH]2)c1 [Compound 174, 1-((2-(((4H-1,2,4-triazol-3-yl)methyl)amino)pyridin-4-yl)methyl)-5,5-dimethyl-3-(4-(1-(trifluoromethyl)cyclopropyl)phenyl) imidazolidine-2,4-dione] | ≥ 6.30
16 | CC1(C)C(=O)N(c2ccc(C3(C(F)(F)F)CC3)cc2)C(=O)N1Cc1ccnc(NCc2nc3ccccn3n2)c1 [Compound 175, 1-((2-(([1,2,4]triazolo[1,5-a]pyridin-2-ylmethyl)amino)pyridin-4-yl)methyl)-5,5-dimethyl-3-(4-(1-(trifluoromethyl)cyclopropyl)phenyl) imidazolidine-2,4-dione] | ≥ 6.30
17 | Cn1cncc1CNc1cc(CN2C(=O)N(c3ccc(C4(C(F)(F)F)CC4)cc3)C(=O)C2(C)C)ccn1 [Compound 176, 5,5-dimethyl-1-((2-(((1-methyl-1H-imidazol-5-yl)methyl)amino)pyridin-4-yl)methyl)-3-(4-(1-(trifluoromethyl)cyclopropyl)phenyl) imidazolidine-2,4-dione] | ≥ 6.30
18 | CC1(C)C(=O)N(c2ccc(C3(C(F)(F)F)CC3)cc2)C(=O)N1Cc1ccnc(NCc2ncccn2)c1 [Compound 177, 5,5-dimethyl-1-((2-((pyrimidin-2-ylmethyl)amino)pyridin-4-yl)methyl)-3-(4-(1-(trifluoromethyl)cyclopropyl)phenyl) imidazolidine-2,4-dione] | ≥ 6.30
19 | CC1(C)C(=O)N(c2ccc(C(F)(F)F)c(C#N)c2)C(=O)N1Cc1ccnc(N[C@H]2[C@@H]3COC[C@@H]32)c1 [Compound 180, 5-(3-((2-(((1R,5S,6r)-3-oxabicyclo[3.1.0]hexan-6-yl)amino)pyridin-4-yl)methyl)-4,4-dimethyl-2,5-dioxoimidazolidin-1-yl)-2-(trifluoromethyl)benzonitrile] | < 5.00
20 | CC1(C)C(=O)N(c2ccc(C3(C(F)(F)F)CC3)cc2)C(=O)N1Cc1ccnc(NCc2ccncn2)c1 [Compound 181, 5,5-dimethyl-1-((2-((pyrimidin-4-ylmethyl)amino)pyridin-4-yl)methyl)-3-(4-(1-(trifluoromethyl)cyclopropyl)phenyl) imidazolidine-2,4-dione] | ≥ 6.30
21 | CC1(C)C(=O)N(c2ccc(C3(C(F)(F)F)CC3)cc2)C(=O)N1Cc1ccnc(NCc2cnccn2)c1 [Compound 182, 5,5-dimethyl-1-((2-((pyrazin-2-ylmethyl)amino)pyridin-4-yl)methyl)-3-(4-(1-(trifluoromethyl)cyclopropyl)phenyl) imidazolidine-2,4-dione] | ≥ 6.30
22 | Cn1ccnc1CNc1cc(CN2C(=O)N(c3ccc(C4(C(F)(F)F)CC4)cc3)C(=O)C2(C)C)ccn1 [Compound 183, 5,5-dimethyl-1-((2-(((1-methyl-1H-imidazol-2-yl)methyl)amino)pyridin-4-yl)methyl)-3-(4-(1-(trifluoromethyl)cyclopropyl)phenyl) imidazolidine-2,4-dione] | ≥ 6.30
23 | CC1(C)C(=O)N(c2ccc(C3(C(F)(F)F)CC3)cc2)C(=O)N1Cc1ccnc(NCc2cc[nH]n2)c1 [Compound 184, 1-((2-(((1H-pyrazol-3-yl)methyl)amino)pyridin-4-yl)methyl)-5,5-dimethyl-3-(4-(1-(trifluoromethyl)cyclopropyl)phenyl) imidazolidine-2,4-dione] | ≥ 6.30
24 | CC(C)Nc1cc(CN2C(=O)N(c3ccc4c(c3)C(O)(O)C(F)(F)S4(=O)=O)C(=O)C2(C)C)ccn1 [Compound 192, 3-(2,2-difluoro-3,3-dihydroxy-1,1-dioxido-2,3-dihydrobenzo[b]thiophen-5-yl)-1-((2-(isopropylamino)pyridin-4-yl)methyl)-5,5-dimethylimidazolidine-2,4-dione] | < 5.00
25 | CC(C)Nc1cc(CN2C(=O)N(c3cnc4c(c3)OCC4(C)C)C(=O)C2(C)C)ccn1 [Compound 193, 3-(3,3-dimethyl-2,3-dihydrofuro[3,2-b]pyridin-6-yl)-1-((2-(isopropylamino)pyridin-4-yl)methyl)-5,5-dimethylimidazolidine-2,4-dione] | 5.00 to 5.70
26 | CC(C)Nc1cc(CN2C(=O)N(c3ccc4c(c3)N(S(C)(=O)=O)CC4(C)C)C(=O)C2(C)C)ccn1 [Compound 194, 3-(3,3-dimethyl-1-(methylsulfonyl)indolin-6-yl)-1-((2-(isopropylamino)pyridin-4-yl)methyl)-5,5-dimethylimidazolidine-2,4-dione] | ≥ 6.30
